Assay results as given in ChEMBL document CHEMBL1833927, “Constructing transferrin receptor targeted drug delivery system by using doxorubicin hydrochloride and vanadocene dichloride” (Bioorg Med Chem Lett, 2011).

Legend:
A549 [1] = assay: Antiproliferative activity against human A549 cells by MTT assay in presence of human serum transferrin/apo transferrin; format: functional, cell-based
[2] = target: Serotransferrin (Homo sapiens) (UniProt P02787); assay: Binding affinity to human apo transferrin after 12 hrs at pH 7.4 by spectrofluorometer method
[3] = target: Serotransferrin (Homo sapiens) (UniProt P02787); assay: Binding affinity to human serum transferrin after 12 hrs at pH 7.4 by spectrofluorometer method
A549 [4] = assay: Antiproliferative activity against human A549 cells by MTT assay; format: functional, cell-based
[5] = target: Serotransferrin (Homo sapiens) (UniProt P02787); assay: Binding affinity to human serum transferrin after 12 hrs at pH 4.8 by spectrofluorometer method
[6] = target: Serotransferrin (Homo sapiens) (UniProt P02787); assay: Binding affinity to human apo transferrin after 12 hrs at pH 4.8 by spectrofluorometer method

Sequence of Serotransferrin (Homo sapiens) (P02787 whole entry): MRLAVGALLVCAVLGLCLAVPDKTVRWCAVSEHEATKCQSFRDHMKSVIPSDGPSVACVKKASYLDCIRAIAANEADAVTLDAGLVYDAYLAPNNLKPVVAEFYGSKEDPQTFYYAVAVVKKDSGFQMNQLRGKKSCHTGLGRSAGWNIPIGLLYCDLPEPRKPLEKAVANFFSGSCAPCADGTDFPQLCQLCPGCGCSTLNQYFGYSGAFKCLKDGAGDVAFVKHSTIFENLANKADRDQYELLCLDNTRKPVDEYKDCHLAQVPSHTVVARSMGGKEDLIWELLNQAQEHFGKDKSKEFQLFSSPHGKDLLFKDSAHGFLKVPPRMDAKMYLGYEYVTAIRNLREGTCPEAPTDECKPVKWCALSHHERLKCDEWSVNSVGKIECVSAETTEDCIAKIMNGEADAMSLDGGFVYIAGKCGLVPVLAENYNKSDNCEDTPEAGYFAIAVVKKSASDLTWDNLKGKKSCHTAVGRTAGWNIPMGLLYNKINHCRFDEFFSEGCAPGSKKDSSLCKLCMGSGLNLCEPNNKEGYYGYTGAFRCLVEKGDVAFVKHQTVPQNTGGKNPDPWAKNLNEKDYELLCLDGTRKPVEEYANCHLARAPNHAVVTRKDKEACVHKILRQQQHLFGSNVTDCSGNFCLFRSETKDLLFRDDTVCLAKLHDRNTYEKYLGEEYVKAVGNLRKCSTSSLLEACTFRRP

- Ka [2]: 74500 M⁻¹
- Ka [3]: 32600 M⁻¹
- Ka [5]: 41900 M⁻¹
- Ka [6]: 271000 M⁻¹
Compound: COc1cccc2c1C(=O)c1c(O)c3c(c(O)c1C2=O)C[C@@](O)(C(=O)CO)C[C@@H]3O[C@H]1C[C@H](N)[C@H](O)[C@H](C)O1
- Activity (A549 [1]): Dose-dependent effect
- Activity (A549 [4]): Dose-dependent effect
